The supplement of paper PMC10307832

Legend:
Assay in all cases: relative viability (nuclei count vs DMSO), 5 days (fraction); higher = more cells survive
CAP-232 + Palbociclib = compound: C[C@H]([C@@H](C(=O)N)NC(=O)[C@@H]1CSSC[C@@H](C(=O)N[C@H](C(=O)N[C@@H](C(=O)N[C@H](C(=O)N1)CCCCN)CC2=CNC3=CC=CC=C32)CC4=CC=C(C=C4)O)NC(=O)[C@@H](CC5=CC=CC=C5)N)O [CAP-232] + CC(=O)c1c(C)c2cnc(Nc3ccc(N4CCNCC4)cn3)nc2n(C2CCCC2)c1=O [Palbociclib] (partner 0.5 µM)
Procedure, shortened: (§1)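 Lung cancer cell lines were pin-tool dosed in 1536-well plates on the day after seeding, with either a lone drug or a fixed anchor-drug dose plus five library-drug doses (not always all listed) in √10 steps. Nuclei were counted on 4× images after 5 days. Relative viability is the ratio of treated-well to vehicle-well nuclei counts, with each value a median of duplicate plates.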

CAP-232 + Decitabine = compound: C[C@H]([C@@H](C(=O)N)NC(=O)[C@@H]1CSSC[C@@H](C(=O)N[C@H](C(=O)N[C@@H](C(=O)N[C@H](C(=O)N1)CCCCN)CC2=CNC3=CC=CC=C32)CC4=CC=C(C=C4)O)NC(=O)[C@@H](CC5=CC=CC=C5)N)O [CAP-232] + Nc1ncn([C@H]2C[C@H](O)[C@@H](CO)O2)c(=O)n1 [Decitabine] (partner 2 µM)
Procedure, shortened: as §1

CAP-232 + Bortezomib = compound: C[C@H]([C@@H](C(=O)N)NC(=O)[C@@H]1CSSC[C@@H](C(=O)N[C@H](C(=O)N[C@@H](C(=O)N[C@H](C(=O)N1)CCCCN)CC2=CNC3=CC=CC=C32)CC4=CC=C(C=C4)O)NC(=O)[C@@H](CC5=CC=CC=C5)N)O [CAP-232] + CC(C)C[C@H](NC(=O)[C@H](Cc1ccccc1)NC(=O)c1cnccn1)B(O)O [Bortezomib] (partner 0.002 µM)
Procedure, shortened: as §1

CAP-232 + Foretinib = compound: C[C@H]([C@@H](C(=O)N)NC(=O)[C@@H]1CSSC[C@@H](C(=O)N[C@H](C(=O)N[C@@H](C(=O)N[C@H](C(=O)N1)CCCCN)CC2=CNC3=CC=CC=C32)CC4=CC=C(C=C4)O)NC(=O)[C@@H](CC5=CC=CC=C5)N)O [CAP-232] + COc1cc2c(Oc3ccc(NC(=O)C4(C(=O)Nc5ccc(F)cc5)CC4)cc3F)ccnc2cc1OCCCN1CCOCC1 [Foretinib] (partner 0.25 µM)
Procedure, shortened: as §1

CAP-232 + Pemetrexed = compound: C[C@H]([C@@H](C(=O)N)NC(=O)[C@@H]1CSSC[C@@H](C(=O)N[C@H](C(=O)N[C@@H](C(=O)N[C@H](C(=O)N1)CCCCN)CC2=CNC3=CC=CC=C32)CC4=CC=C(C=C4)O)NC(=O)[C@@H](CC5=CC=CC=C5)N)O [CAP-232] + Nc1nc2[nH]cc(CCc3ccc(C(=O)N[C@@H](CCC(=O)O)C(=O)O)cc3)c2c(=O)[nH]1 [Pemetrexed] (partner 0.2 µM)
Procedure, shortened: as §1

| Cell Line | relative viability (CAP-232 + Palbociclib; first compound 0.4 µM) | relative viability (CAP-232 + Palbociclib; first compound 1.265 µM) | relative viability (CAP-232 + Palbociclib; first compound 4 µM) | relative viability (CAP-232 + Palbociclib; first compound 12.65 µM) | relative viability (CAP-232 + Decitabine; first compound 0.4 µM) | relative viability (CAP-232 + Decitabine; first compound 1.265 µM) | relative viability (CAP-232 + Decitabine; first compound 4 µM) | relative viability (CAP-232 + Decitabine; first compound 12.65 µM) | relative viability (CAP-232 + Bortezomib; first compound 0.4 µM) | relative viability (CAP-232 + Bortezomib; first compound 1.265 µM) | relative viability (CAP-232 + Bortezomib; first compound 4 µM) | relative viability (CAP-232 + Bortezomib; first compound 12.65 µM) | relative viability (CAP-232 + Foretinib; first compound 0.4 µM) | relative viability (CAP-232 + Foretinib; first compound 1.265 µM) | relative viability (CAP-232 + Foretinib; first compound 4 µM) | relative viability (CAP-232 + Foretinib; first compound 12.65 µM) | relative viability (CAP-232 + Pemetrexed; first compound 0.4 µM) | relative viability (CAP-232 + Pemetrexed; first compound 1.265 µM) | relative viability (CAP-232 + Pemetrexed; first compound 4 µM) | relative viability (CAP-232 + Pemetrexed; first compound 12.65 µM) |
| --- | --- | --- | --- | --- | --- | --- | --- | --- | --- | --- | --- | --- | --- | --- | --- | --- | --- | --- | --- | --- |
| NCI-H1975 | 0.664 | 0.486 | 0.74 | 0.324 | 0.399 | 0.39 | 0.406 | 0.207 | 0.336 | 0.351 | 0.416 | 0.255 | 0.931 | 0.915 | 1.06 | 0.474 | 0.32 | 0.289 | 0.307 | 0.197 |
| NCI-H1993 | 0.701 | 0.586 | 0.62 | 0.602 | 0.569 | 0.676 | 0.608 | 0.559 | 1.26 | 1.07 | 0.966 | 0.896 | 0.804 | 0.775 | 0.829 | 0.757 | 0.602 | 0.533 | 0.553 | 0.586 |
| NCI-H2009 | 0.181 | 0.244 | 0.175 | 0.153 | 0.397 | 0.391 | 0.341 | 0.33 | 1.09 | 0.974 | 0.97 | 0.843 | 1.23 | 1.17 | 1.21 | 1.07 | 1.07 | 1.06 | 1.11 | 1 |
| NCI-H2023 | 0.377 | 0.353 | 0.346 | 0.157 | 0.242 | 0.2 | 0.239 | 0.153 | 1.02 | 1.03 | 1.07 | 0.237 | 0.899 | 0.946 | 0.766 | 0.294 | 0.246 | 0.257 | 0.178 | 0.0965 |
| NCI-H2085 | 0.465 | 0.495 | 0.447 | 0.5 | 0.56 | 0.542 | 0.511 | 0.545 | 1.2 | 0.974 | 1 | 0.791 | 0.933 | 0.87 | 1.1 | 0.998 | 0.941 | 0.796 | 0.899 | 0.918 |
| NCI-H2087 | 0.214 | 0.225 | 0.218 | 0.226 | 0.265 | 0.261 | 0.276 | 0.238 | 1.01 | 0.746 | 1.14 | 0.462 | 1.17 | 1.2 | 1.1 | 0.665 | 0.662 | 0.655 | 0.68 | 0.604 |
| NCI-H2126 | 0.345 | 0.315 | 0.341 | 0.359 | 0.488 | 0.612 | 0.618 | 0.614 | 1.22 | 1.08 | 1.19 | 1.13 | 1.34 | 1.33 | 1.63 | 1.11 | 0.703 | 0.696 | 0.706 | 0.654 |
| NCI-H2347 | 0.453 | 0.462 | 0.412 | 0.423 | 0.648 | 0.589 | 0.555 | 0.544 | 1.14 | 1.19 | 1.2 | 0.846 | 0.804 | 0.524 | 1.11 | 1.05 | 0.432 | 0.436 | 0.457 | 0.418 |
| NCI-H2405 | 0.553 | 0.563 | 0.536 | 0.369 | 0.715 | 0.752 | 0.796 | 0.578 | 1 | 0.867 | 1.07 | 0.9 | 1.04 | 1.11 | 1.05 | 0.79 | 1.11 | 1.1 | 0.986 | 0.512 |
| NCI-H3122 | 0.178 | 0.181 | 0.187 | 0.214 | 0.392 | 0.364 | 0.458 | 0.426 | 1.01 | 1.05 | 0.896 | 1 | 0.91 | 0.97 | 0.795 | 1.03 | 0.2 | 0.226 | 0.201 | 0.194 |
| PC-3 [JPC-3] | 0.583 | 0.542 | 0.545 | 0.555 | 0.738 | 0.895 | 0.821 | 0.864 | 0.939 | 0.855 | 0.734 | 0.788 | 1.1 | 1.02 | 1.05 | 0.98 | 1.63 | 1.05 | 0.992 | 0.888 |
| PC-14 | 0.675 | 0.507 | 0.538 | 0.412 | 0.215 | 0.191 | 0.205 | 0.151 | 0.931 | 0.817 | 1.07 | 0.821 | 1.06 | 0.939 | 1.06 | 0.86 | 0.121 | 0.123 | 0.137 | 0.127 |
| RERF-LC-KJ | 1.43 | 1.12 | 0.908 | 0.747 | 0.659 | 0.758 | 0.79 | 0.41 | 1.16 | 1.15 | 1.44 | 0.987 | 0.87 | 0.993 | 0.951 | 0.884 | 0.499 | 0.534 | 0.441 | 0.407 |
| SK-LU-1 | 0.375 | 0.398 | 0.405 | 0.364 | 0.628 | 0.622 | 0.768 | 0.469 | 1.53 | 1.04 | 1.2 | 1.3 | 0.759 | 0.937 | 0.913 | 0.652 | 0.916 | 0.996 | 1.03 | 0.658 |
| SW 1573 | 0.313 | 0.392 | 0.406 | 0.201 | 0.48 | 0.534 | 0.45 | 0.169 | 0.951 | 1.03 | 0.927 | 0.974 | 0.873 | 0.836 | 0.903 | 1.03 | 0.801 | 0.879 | 0.789 | 0.103 |
| UMC-11 | 0.346 | 0.349 | 0.311 | 0.341 | 0.55 | 0.55 | 0.581 | 0.671 | 1.11 | 0.719 | 1.11 | 1.1 | 1.09 | 1.1 | 1.12 | 0.977 | 0.824 | 0.843 | 0.821 | 0.613 |
